Reference: patent US7674818B2, “Aryl, aryloxy, alkyloxy substituted 1H-indol-3-yl glyoxylic acid derivatives as inhibitors of plasminogen activator inhibitor-1 (PAI-1)” (Wyeth LLC, priority 2002, dated 2010)

What was measured:
[1] = target: T1, recombinant human plasminogen activator inhibitor-1 (Homo sapiens, UniProt P05121); test: Primary screen for the PAI-1 inhibition (residual tPA activity, Spectrozyme-tPA chromogenic substrate); type: biochemical; conditions: pH 6.6 buffer, 140 nM PAI-1, 70 nM tPA; for inhibition at 25 µM / Inhibition @25 uM (%): test compound 25 uM; for Inhibition (%) (100 uM): test compound 100 uM (cell annotated "(100 uM)" instead of 25 uM)
T1 construct: purchased Molecular Innovations, Royal Oak, Mich
T1 sequence (P05121 24-402): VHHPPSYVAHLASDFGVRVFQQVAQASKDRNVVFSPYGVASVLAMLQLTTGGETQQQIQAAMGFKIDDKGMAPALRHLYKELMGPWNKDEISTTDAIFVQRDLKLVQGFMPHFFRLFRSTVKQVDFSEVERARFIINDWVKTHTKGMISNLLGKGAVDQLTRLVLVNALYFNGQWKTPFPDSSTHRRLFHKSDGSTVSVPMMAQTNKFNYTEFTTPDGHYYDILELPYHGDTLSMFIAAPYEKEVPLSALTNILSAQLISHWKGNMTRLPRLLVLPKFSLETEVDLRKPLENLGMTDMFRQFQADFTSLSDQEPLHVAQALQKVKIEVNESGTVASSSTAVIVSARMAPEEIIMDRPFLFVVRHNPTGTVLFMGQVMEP
Method: Primary Screen for the PAI-1 Inhibition
Test compounds were dissolved in DMSO at a final concentration of 10 mM, then diluted 100× in physiologic buffer. The inhibitory assay was initiated by the addition of the test compound (1-100 μM final concentration, maximum DMSO concentration of 0.2%) in a pH 6.6 buffer containing 140 nM recombinant human plasminogen activator inhibitor-1 (Molecular Innovations, Royal Oak, Mich.). Following a 1 hour incubation at room temperature, 70 nM of recombinant human tissue plasminogen activator (tPA) was added, and the combination of the test compound, PAI-1 and tPA was incubated for an additional 30 minutes. Following the second incubation, Spectrozyme-tPA (American Diagnostica, Greenwich, Conn.), a chromogenic substrate for tPA, was added and absorbance read at 405 nm at 0 and 60 minutes. Relative PAI-1 inhibition was equal to the residual tPA activity in the presence of the test compound and PAI-1. Control treatments included the complete inhibition of tPA by PAI-1 at the molar ratio employed (2:1), and the absence of any effect of the test compound on tPA alone.

human PAI-1 = human PAI-1 (Homo sapiens, UniProt P05121); test: Assay for determining IC50 of inhibition of PAI-1 (active PAI-1 bound to tPA-coated plate, 33B8 antibody detection); type: biochemical; conditions: human PAI-1 50 ng/ml, pH 7.5, tPA-coated plate
human PAI-1, sequence (P05121 24-402): as above
Method: Assay for Determining IC50 OF Inhibition of PAI-1
This assay was based upon the non-SDS dissociable interaction between tPA and active PAI-1. Assay plates were initially coated with human tPA (10 μg/ml). The test compounds were dissolved in DMSO at 10 mM, then diluted with physiologic buffer (pH 7.5) to a final concentration of 1-50 μM. The test compounds were incubated with human PAI-1 (50 ng/ml) for 15 minutes at room temperature. The tPA-coated plate was washed with a solution of 0.05% Tween 20 and 0.1% BSA, then the plate is blocked with a solution of 3% BSA. An aliquot of the test compound/PAI-1 solution was then added to the tPA-coated plate, incubated at room temperature for 1 hour, and washed. Active PAI-1 bound to the plate was assessed by adding an aliquot of a 1:1000 dilution of the 33B8 monoclonal antibody against human PAI-1, and incubating the plate at room temperature for 1 hour (Molecular Innovations, Royal Oak, Mich.). The plate was again washed, and a solution of goat anti-mouse IgG-alkaline phosphatase conjugate is added at a 1:50,000 dilution in goat serum. The plate was incubated 30 minutes at room temperature, washed, and a solution of alkaline phosphatase substrate was added. The plate was incubated 45 minutes at room temperature, and color development was determined at OD405 nm. The quantitation of active PAI-1 bound to tPA at varying concentrations of the test compound was used to determine the IC50. Results were analyzed using a logarithmic best-fit equation. The assay sensitivity was 5 ng/ml of human PAI-1 as determined from a standard curve ranging from 0-100 ng/ml.

Row | Compound | inhibition at 25 µM [1] | Inhibition (%) (100 uM) [1] | also measured
1 | C=CCOc1ccc2c(c1)c(C(=O)C(=O)O)cn2CCc1cccc2ccccc12 [Example 28, [5-Allyloxy-1-(2-naphthalen-1-yl-ethyl)-1H-indol-3-yl]-oxo-acetic acid] | 12% |  | 
2 | C=CCOc1ccc2c(c1)c(C(=O)C(=O)O)cn2CCc1cccc(C(F)(F)F)c1 [Example 29, {5-Allyloxy-1-[2-(3-trifluoromethylphenyl)-ethyl]-1H-indol-3-yl}-oxo-acetic acid] |  | 29% | 
3 | C=CCOc1ccc2c(c1)c(C(=O)C(=O)O)cn2CC1CCC1 [Example 24, (5-Allyloxy-1-cyclobutylmethyl-1H-indol-3-yl)-oxo-acetic acid] |  | 13% | 
4 | O=C(O)C(=O)c1cn(-c2cccc(OCc3ccc(-c4csnn4)cc3)c2)c2ccc(Cl)cc12 [Example 18, {5-Chloro-1-[3-(4-[1,2,3]thiadiazol-4-ylbenzyloxy)phenyl]-1H-indol-3-yl}(oxo)acetic acid] | 45% |  | 
5 | C=CCOc1ccc2c(c1)c(C(=O)C(=O)O)cn2CCc1ccc(Br)cc1 [Example 30, {5-Allyloxy-1-[2-(4-bromophenyl)-ethyl]-1H-indol-3-yl}-oxo-acetic acid] | 29% |  | 
6 | COc1cc(COc2ccc(-n3cc(C(=O)C(=O)O)c4cc(F)ccc43)cc2)cc(OC)c1 [Example 5, {1-[4-(3,5-Dimethoxybenzyloxy)phenyl]-5-fluoro-1H-indol-3-yl}(oxo)acetic acid] | 26% |  | 
7 | C=CCOc1ccc2c(c1)c(C(=O)C(=O)O)cn2Cc1ccc2c(c1)OCO2 [Example 26, (5-Allyloxy-1-benzo[1,3]dioxol-5-ylmethyl-1H-indol-3-yl)-oxo-acetic acid] |  | 8% | 
8 | 5-[3-(5-Chloro-3-carboxy(oxo)methyl-1H-indol-1-yl)phenoxymethyl]furan-2-carboxylic acid ethyl ester [Example 17] |  | 49% | 
9 | O=C(O)C(=O)c1cn(-c2cccc(OCc3cc(Cl)nc(Cl)c3)c2)c2ccc(Cl)cc12 [Example 19, {5-Chloro-1-[3-(2,6-dichloropyridin-4-ylmethoxy)phenyl]-1H-indol-3-yl}(oxo)acetic acid] | 46% |  | 
10 | O=C(O)C(=O)c1cn(-c2ccc(OCc3ccc(-c4csnn4)cc3)cc2)c2ccccc12 [Example 12, {1-[4-(4-[1,2,3]thiadiazol-4-ylbenzyloxy)phenyl]-1H-indol-3-yl}(oxo)acetic acid] |  | 32% | 
11 | N#Cc1ccc(COc2ccc(-n3cc(C(=O)C(=O)O)c4cc(F)ccc43)cc2)cc1 [Example 4, {1-[4-(4-Cyanobenzyloxy)phenyl]-5-fluoro-1H-indol-3-yl}(oxo)acetic acid] |  | 40% | 
12 | O=C(O)C(=O)c1cn(-c2cccc(OCc3c(F)c(F)c(C(F)(F)F)c(F)c3F)c2)c2ccc(Cl)cc12 [Example 16, {5-Chloro-1-[3-(2,3,5,6-tetrafluoro-4-trifluoromethylbenzyloxy)phenyl]1H-indol-3-yl}(oxo)acetic acid] | 75% |  | IC50 (human PAI-1): > 25 µM
13 | C=CCOc1ccc2c(c1)c(C(=O)C(=O)O)cn2CCc1ccccc1 [Example 25, (5-Allyloxy-1-phenethyl-1H-indol-3-yl)-oxo-acetic acid] |  | 8% | 
14 | Cc1ccc2c(c1)c(C(=O)C(=O)O)cn2-c1ccc(OCc2ccc(Cl)cc2Cl)cc1 [Example 8, {1-[4-(2,4-Dichlorobenzyloxy)phenyl]-5-methyl-1H-indol-3-yl}(oxo)acetic acid] |  | 34% | 
15 | N#Cc1ccc(COc2cccc(-n3cc(C(=O)C(=O)O)c4cc(Cl)ccc43)c2)cc1 [Example 9, {5-Chloro-1-[3-(4-cyanobenzyloxy)phenyl]-1H-indol-3-yl}(oxo)acetic acid] | 44% |  | 
16 | O=C(O)C(=O)c1cn(Cc2ccccc2)c2ccc(OCc3ccccc3)cc12 [Example 22, (1-Benzyl-5-benzyloxy-1H-indol-3-yl)-oxo-acetic acid] | 13% |  | 
17 | O=C(O)C(=O)c1cn(-c2ccc(OCc3c(F)c(F)c(C(F)(F)F)c(F)c3F)cc2)c2ccccc12 [Example 11, {1-[4-(2,3,5,6-tetrafluoro-4-trifluoromethylbenzyloxy)phenyl]1H-indol-3-yl}(oxo)acetic acid] | 66% |  | 
18 | Cc1ccc2c(c1)c(C(=O)C(=O)O)cn2-c1ccc(OCc2cccc(Cl)c2)cc1 [Example 6, {1-[4-(3-Chlorobenzyloxy)phenyl]-5-methyl-1H-indol-3-yl}(oxo)acetic acid] | 54% |  | IC50 (human PAI-1): > 25 µM
19 | O=C(O)C(=O)c1cn(Cc2ccc(F)cc2)c2ccc(OCCc3ccc(F)cc3)cc12 [Example 21] | 6% |  | melting point: 171 to 173 °C
20 | O=C(O)C(=O)c1cn(-c2ccc(OCc3cc(Cl)nc(Cl)c3)cc2)c2ccccc12 [Example 13, {1-[4-(2,6-Dichloropyridin-4-ylmethoxy)phenyl]1H-indol-3-yl}(oxo)acetic acid] | 39% |  | 
21 | Cc1ccc2c(c1)c(C(=O)C(=O)O)cn2-c1ccc(OCc2cc(Cl)nc(Cl)c2)cc1 [Example 15, {1-[4-(2,6-dichloropyridin-4-ylmethoxy)phenyl]-5-methyl-1H-indol-3-yl}(oxo)acetic acid] | 5% |  | 
22 | CCOC(=O)c1ccc(COc2ccc(-n3cc(C(=O)C(=O)O)c4cc(F)ccc43)cc2)o1 [Example 14, 5-[4-(5-Fluoro-3-carboxy(oxo)methyl-1H-indol-1-yl)phenoxymethyl]furan-2-carboxylic acid ethyl ester] |  |  | Inhibition @25 uM (%) [1]: 43%
23 | C=CCOc1ccc2c(c1)c(C(=O)C(=O)O)cn2CCc1ccc(OC)cc1 [Example 27, {5-Allyloxy-1-[2-(4-methoxy-phenyl)-ethyl]-1H-indol-3-yl}-oxo-acetic acid] |  | 16% | 
24 | COc1cccc(COc2ccc(-n3cc(C(=O)C(=O)O)c4ccccc43)cc2)c1 [Example 2, {1-[4-(3-Methoxybenzyloxy)phenyl]-1H-indol-3-yl}(oxo)acetic acid] | 43% |  | 
25 | N#Cc1ccc(COc2ccc(-n3cc(C(=O)C(=O)O)c4ccccc43)cc2)cc1 [Example 1, (1-{4-[(4-Cyanobenzyl)oxy]phenyl}-1H-indol-3-yl)(oxo)acetic acid] | 23% |  | 
26 | Cc1ccc2c(c1)c(C(=O)C(=O)O)cn2-c1ccc(OCc2ccc(C(C)(C)C)cc2)cc1 [Example 7, {1-[4-(4-tert-Butylbenzyloxy)phenyl]-5-methyl-1H-indol-3-yl}(oxo)acetic acid] | 62% |  | 
27 | O=C(O)C(=O)c1cn(-c2ccc(OC(F)(F)F)cc2)c2ccc(-c3ccc(OC(F)(F)F)cc3)cc12 [Example 20, [1,5-Bis-(4-trifluoromethoxy-phenyl)-1H-indol-3-yl]-oxo-acetic acid] | 56% |  | IC50 (human PAI-1): > 25 µM
28 | {1-[4-(3-Chlorobenzyloxy) phenyl]-1H-indol-3-yl}(oxo)acetic acid [Example 3] |  |  | IC50 (human PAI-1): > 25 µM; Inhibition @25 uM (%) [1]: 78%
29 | COc1cc(COc2cccc(-n3cc(C(=O)C(=O)O)c4cc(Cl)ccc43)c2)cc(OC)c1 [Example 10, {5-Chloro-1-[3-(3,5-dimethoxybenzyloxy)phenyl]-1H-indol-3-yl}(oxo)acetic acid] | 1% |  | 
30 | O=C(O)C(=O)c1cn(Cc2ccccc2)c2ccc(Oc3ccc(C(F)(F)F)cc3Cl)cc12 [Example 23, [1-Benzyl-5-(2-chloro-4-trifluoromethyl-phenoxy)-1H-indol-3-yl](oxo)acetic acid] | 52% |  | IC50 (human PAI-1): 12.3 µM; melting point: 152 to 154 °C
